Results as given in article PMC10770036, “Novel dual inhibitors of PARP and HDAC induce intratumoral STING-mediated antitumor immunity in triple-negative breast cancer” (Cell Death & Disease, 2024).

Tests used:
[1] = test system: MDA-MB-436, MDA-MB-231, and 4T1 cell-derived xenografts; assay: Antitumor effect in tumor-bearing mice; type: in vivo; details: B102 15 mg/kg or B302 50 mg/kg, intraperitoneal, once daily, versus vehicle
From the text: MDA-MB-436, MDA-MB-231, and 4T1 cells were orthotopically injected into the fat pads of 6- to 7-week-old female NOD-Prkdc^scid Il2rg^em1Smoc (M-NSG), BALB/c nude and BALB/c mice, respectively. Fourteen 6-week-old female MMTV-PyMT mice were divided into two groups. The […] in each group were littermates. All animal procedures were approved by the Institutional Animal Care and Use Committee at Shenzhen University.
MDA-MB-436 cells (5 × 10^6) were suspended in PBS and Matrigel (Corning) at a 1:1 ratio and orthotopically injected into the fat pads of 6- to 7-week-old female NOD-Prkdc^scid Il2rg^em1Smoc (M-NSG) mice from the Shanghai Model Organisms Center, Inc. MDA-MB-231 cells (5 × 10^6) were suspended in PBS orthotopically injected into the fat pads of 6- to 7-week-old female BALB/c nude mice from the Shanghai Model Organisms Center, Inc. 4T1 cells (1 × 10^6) were suspended in PBS and injected into the fat pads of 6- to 7-week-old […] BALB/c mice from GemPharmatech Co., Ltd. When the tumor size reached 100 mm^3, the mice were randomly divided into three treatment groups without blinding: B102 (15 mg/kg), B302 (50 mg/kg) or vehicle [10% N,N-dimethylacetamide (DMAC, Sangon Biotech) and 6% polyethylene glycol 12-hydroxystearate (Solutol HS-15, MedChem Express, Monmouth Junction, NJ, USA) in saline] treatment via an intraperitoneal injection once daily. […]

RAD51 = assay: Western blot of RAD51 expression in TNBC cells; type: cell-based, human; details: 2.5 μM compared with the positive controls at 5 μM, 24 h
Method: (§1) Western blot analysis was performed as previously described, and all western blot analyses were performed at least three times.
(§2) Western blot analysis was performed as previously described. Briefly, whole cell or tissue lysates were prepared using ice-cold Nonidet P-40 buffer mixed with protease and phosphatase inhibitors (Roche, IN, USA) and centrifuged at 14,000 × g at 4 °C for 10 min. The protein lysates were fractionated by sodium dodecyl sulfate–polyacrylamide gel electrophoresis (SDS–PAGE) and transferred to polyvinylidene fluoride (PVDF) membranes (Merck, Darmstadt, Germany). Membranes were incubated in 1× TBST buffer containing 5% nonfat powdered milk at room temperature for 2 h. The indicated primary antibody was incubated with PVDF membranes, followed by a washing step using 1× TBST and a secondary antibody conjugated to HRP. Signal detection was carried out using the Western ECL Substrate kit (Bio-Rad, Hercules, CA, USA). […]

[2] = test system: cGAS–STING signaling pathway; assay: Western blot of cGAS–STING pathway activation; type: cell-based, human; details: MDA-MB-436 cells, 48 h
Method: as §1, §2

Row | SMILES | tumor growth [1] | inhibitory effect on RAD51 (RAD51) | activation of the cGAS–STING signaling pathway [2]
1 | Nc1cc(F)ccc1NC(=O)/C=C/c1ccc(CN2CCN(C(=O)c3cc(Cc4n[nH]c(=O)c5ccccc45)ccc3F)CC2)cc1 [Compound B102] | robust inhibition of tumor growth at low doses | more potent inhibitory effect on RAD51 | 
2 | Nc1cc(F)ccc1NC(=O)CCc1ccc(CN2CCN(C(=O)c3cc(Cc4n[nH]c(=O)c5ccccc45)ccc3F)CC2)cc1 [Compound B302] |  |  | concentration-dependent activation
